Data on two compounds can be found in ChEMBL document CHEMBL1137710, “Synthesis and in vitro antitumor activity of new quinoxaline derivatives” (2009).

What all share (type): functional
The test system of one experiment is MCF7. Nature of the experiment: Anticancer activity against human MCF7 cells assessed as cell growth at 100 uM after 48 hrs by sulforhodamine B assay. Conditions: MCF7, 48 h, read-out: Activity.
The test system of a further experiment is SF-268. Put plainly: Anticancer activity against human SF268 cells assessed as cell growth at 100 uM after 48 hrs by sulforhodamine B assay. Conditions: SF-268, 48 h, read-out: Activity. Background: Sulforhodamine B stains cellular protein and so reports cell mass.
Another experiment has as its system NCI-H460. Nature of the experiment: Anticancer activity against human NCI-H460 cells assessed as cell growth at 100 uM after 48 hrs by sulforhodamine B assay. Conditions: NCI-H460, 48 h, read-out: Activity.

Consider `COc1ccc(Oc2nc3cc(N)cc(N)c3nc2-c2ccccc2)cc1OC`, for which the growth at 100 µM stood at 117% in the experiment on MCF7, 131% with SF-268 and 118% in the experiment with NCI-H460.
On to `COc1ccc(Sc2nc3cc(N)cc(N)c3nc2-c2ccccc2)cc1OC`, for which the growth at 100 µM with MCF7 was found to be 121%; in the experiment on SF-268, 136%; with NCI-H460, 119%.
